Laboratory results from US20200102349A1, “PEPTIDE REAGENTS AND METHODS FOR DETECTION AND TARGETING OF DYSPLASIA, EARLY CANCER AND CANCER” (THE REGENTS OF THE UNIVERSITY OF MICHIGAN, priority 2014, published 2020).

System: SW620 cells
Assay: Peptide binding to colorectal cancer cells on confocal microscopy (SW620)
Assay type: cell-based, human
Details: SW620, 5 μM, 3 min
Protocol: HT29, SW480, and SW620 cells (˜10^3) were grown on cover slips to ˜80% confluence. The cells were washed 1× with PBS and incubated with 5 μM of QRH*-Cy5.5 and PEH*-Cy5.5 for 3 min at RT. The cells were then washed 3× in PBS, fixed with 4% paraformaldehyde (PFA) for 5 min, washed 1× with PBS, and then mounted on glass slides with ProLong Gold reagent containing DAPI (Invitrogen). Confocal fluorescence images were collected with FITC, Cy5.5, and DAPI filters (Leica Inverted SPSX Confocal Microscope System) using a 63× oil-immersion objective. Fluorescence intensities from 5 cells in 2 independent images were quantified using custom Matlab (Mathworks) software.
We assessed binding of QRH*-Cy5.5 to a panel of colorectal cancer cells that vary in EGFR expression level on confocal microscopy. We observed binding of QRH*-Cy5.5 to the surface (arrows) of HT29, SW480, and SW620 cells with decreasing strength, FIG. 3A-C, scale bars 30 μm. […] Results are an average of 10 cells from 2 independent images. EGFR expression is shown on Western blot, FIG. 3H.

QRHKPRE (SEQ ID NO: 1) with Cy5.5 fluorophore attached via a GGGSK linker (SEQ ID NO: 18) on the C-terminus [QRH*-Cy5.5]
fluorescence intensity of binding (mean±std): 1.0±0.3
